# What was measured:
# [1] = system: B16-F10 cells; assay: Western blot, protein expression after 24 h IFNγ; assay type: cell-based, murine; settings: Stub1-null B16-F10, 24 h IFNγ
# Procedure: (§1) Parental, CRISPR-edited or biologic-overexpressed tumour cells were seeded in a cell density of 60,000 (B16-F10), 150,000 (CT26), 100,000 (A375), or 200,000 (A549) per well in 12-well plate filled with 0.8 ml culture media + 10% FBS. After overnight incubation, the culture media were replaced with 1 ml fresh media supplemented with 10% FBS and the designated concentration of the recombinant mouse IFNγ (R&D Systems, #485-MI-100) or recombinant human IFNγ (R&D Systems, #285-IF-100). The cells were stimulated with the cytokine for 24 h before they were harvested by trypsinization for flow cytometry, western blot, or qPCR analysis (6 h treatment).
# Cells were dissociated from the wells with 0.25% trypsin (Gibco, 25200056). After rinsing with 0.5 ml PBS, the cell pellets were lysed with chilled cell lysis buffer (Cell Signaling Technology, #9803) supplemented with Halt protease inhibitor cocktail (Thermo Scientific, #78430) and phosphatase inhibitor (Sigma-Aldrich, # 4906837001) for 30 min with intermittent vortexing. The lysate was transferred into PCR-strip tubes and sonicated in a chilled water bath sonicator (QSonica). Lysates were clarified by centrifugation at 15,000 rpm at 4 °C for 15 min. Protein concentration was determined using BCA protein assay kit (Pierce, #23225). The lysates were mixed with LDS sample buffer (Life Technologies, NP0008) and sample reducing agent (Life Technologies, NP0009), followed by heating at 70 °C for 10 min to fully denature the protein. […] Membrane blots were pre-stained with total protein stain (LI-COR, # 926-11016) and imaged with Odyssey CLx. […] The blots were finally probed, for overnight at 4 °C, with the appropriate primary antibodies diluted in Intercept (TBS) blocking buffer supplemented with 0.1% (v/v) Tween-20, followed by the secondary antibodies (IRDye 800CW donkey anti-rabbit or anti-mouse IgG, LI-COR) for 1 h at room temperature. Fluorescent signals were imaged and quantified using Odyssey CLx and Image Studio v5.0. Primary antibodies used were: STUB1/CHIP (Cell Signaling Technology, #2080, 1:2000 dilution), STAT1 (Cell Signaling Technology, #14995, 1:10,000 dilution), phospho-Tyr701-STAT1 (Cell Signaling Technology, #9167, 1:2000 dilution), STAT2 (Cell Signaling Technology, #72604, 1:2000 dilution), IRF1 (Cell Signaling Technology, #8478, 1:2000 dilution), PSMB8 (Cell Signaling Technology, #13635, 1:2000 dilution), PSMB9 (Abcam, ab184172, 1:10,000 dilution), and PSMB10 (Abcam, ab183506, 1:10,000 dilution).
# [2] = system: B16-F10 cells; assay: Flow cytometry, surface MHC-I on CRISPR-edited cells with IFNγ; assay type: cell-based, murine
# Procedure: as §1, with “The cells were stimulated with the cytokine for 24 h before they were harvested by trypsinization for flow cytometry, western blot, or qPCR analysis (6 h treatment).” left out
# Cells were dissociated from the wells with 0.25% trypsin (Gibco, 25200056). After rinsing with 0.5 ml PBS, each sample was stained with the LIVE/DEAD Fixable Aqua dead cell staining solution (Life Technologies, L34957) in 100 µl PBS (1:1000 dilution) for 15 min at 4 °C. After rinsing with 2 × 0.5 ml PBS, each sample was stained with the corresponding primary antibody-dye conjugates diluted in 100 µl Pharmingen stain buffer (BD Biosciences, #554657). After 1 h staining at 4 °C, the cells were rinsed with 2 × 2 ml Pharmingen stain buffer and fixed with 4.21% (w/w) formaldehyde (BD Biosciences, #554655). Cells were analyzed on LSRFortessa X-20 (BD Biosciences) with appropiate fluorescence compensation. The data were analyzed using FlowJo. Cells were gated based on FSC and SSC. Single cells were selected using FSC-A and FSC-H and viable cells were selected using LIVE/DEAD signal. Primary antibodies used were: H-2K^b/H-2D^b (FITC, Biolegend, #114606, 1:50 dilution), HLA-A,B,C (FITC, Biolegend, #311404, 1:100 dilution), mouse IFNGR1 (PE, Invitrogen, #12-1191-82, 1:50 dilution), human IFNGR1 (PE, Miltenyi, #130-125-851, 1:50 dilution), mouse IL1R1 (APC, Biolegend, #113509, 1:20 dilution), mouse IL6R (APC, Biolegend, #115812, 1:20 dilution), mouse IFNAR1 (APC, Biolegend, #127314, 1:20 dilution), and mouse GP130 (PE, Biolegend, #149404, 1:100 dilution).
substance,measurement,setting,value
IFNγ,"Protein expression of STAT1, STAT2, IRF1",[1],"upregulation of STAT1, STAT2, and IRF1 after 24 h stimulation with IFNγ"
same,IFNγ concentration needed by parental and control cells for response comparable to Stub1-null cells,"[2]; B16-F10 (Fig. 1b, e)",at least tenfold higher concentration of IFNγ
same,MHC-I relative abundance compared to parental,"[2]; Parental, 0.10 ng ml-1, 24 h",1.00
same,MHC-I relative abundance compared to parental,"[2]; Parental, 0.10 ng ml-1, 48 h",1.00
same,Surface MHC-I,[2]; Stub1-null vs parental and control B16-F10,"significantly higher, IFNγ-dependent, MHC-I on cell surface"
same,MHC-I relative abundance compared to parental,"[2]; clone 1A12 (gStub1 #2), 0.10 ng ml-1, 24 h",3.60
same,MHC-I relative abundance compared to parental,"[2]; clone 1A12 (gStub1 #2), 0.10 ng ml-1, 48 h",11.41
same,MHC-I relative abundance compared to parental,"[2]; clone 1B9, 0.10 ng ml-1, 24 h",1.36
same,MHC-I relative abundance compared to parental,"[2]; clone 1B9, 0.10 ng ml-1, 48 h",1.43
same,MHC-I relative abundance compared to parental,"[2]; clone 1D8, 0.10 ng ml-1, 24 h",4.16
same,MHC-I relative abundance compared to parental,"[2]; clone 1D8, 0.10 ng ml-1, 48 h",12.70
same,MHC-I relative abundance compared to parental,"[2]; clone 1D10 (gStub1 #1), 0.10 ng ml-1, 24 h",4.42
same,MHC-I relative abundance compared to parental,"[2]; clone 1D10 (gStub1 #1), 0.10 ng ml-1, 48 h",13.18
same,MHC-I relative abundance compared to parental,"[2]; clone 1E6, 0.10 ng ml-1, 24 h",9.22
same,MHC-I relative abundance compared to parental,"[2]; clone 1E6, 0.10 ng ml-1, 48 h",24.23
same,MHC-I relative abundance compared to parental,"[2]; clone 1G6, 0.10 ng ml-1, 24 h",4.19
same,MHC-I relative abundance compared to parental,"[2]; clone 1G6, 0.10 ng ml-1, 48 h",12.85
same,MHC-I relative abundance compared to parental,"[2]; clone 1G10, 0.10 ng ml-1, 24 h",1.08
same,MHC-I relative abundance compared to parental,"[2]; clone 1G10, 0.10 ng ml-1, 48 h",0.94
same,MHC-I relative abundance compared to parental,"[2]; clone 1H7, 0.10 ng ml-1, 24 h",2.27
same,MHC-I relative abundance compared to parental,"[2]; clone 1H7, 0.10 ng ml-1, 48 h",5.53
same,MHC-I relative abundance compared to parental,"[2]; clone 2B11, 0.10 ng ml-1, 24 h",2.67
same,MHC-I relative abundance compared to parental,"[2]; clone 2B11, 0.10 ng ml-1, 48 h",9.24
same,MHC-I relative abundance compared to parental,"[2]; clone 2E8 (gControl), 0.10 ng ml-1, 24 h",0.75
same,MHC-I relative abundance compared to parental,"[2]; clone 2E8 (gControl), 0.10 ng ml-1, 48 h",0.77
same,MHC-I relative abundance compared to parental,"[2]; clone 2E9, 0.10 ng ml-1, 24 h",4.10
same,MHC-I relative abundance compared to parental,"[2]; clone 2E9, 0.10 ng ml-1, 48 h",11.55
same,MHC-I relative abundance compared to parental,"[2]; clone 2F7, 0.10 ng ml-1, 24 h",1.00
same,MHC-I relative abundance compared to parental,"[2]; clone 2F7, 0.10 ng ml-1, 48 h",1.01
same,MHC-I relative abundance compared to parental,"[2]; clone 2H3, 0.10 ng ml-1, 24 h",3.56
same,MHC-I relative abundance compared to parental,"[2]; clone 2H3, 0.10 ng ml-1, 48 h",12.42
